System: patients having hormone refractory prostate cancer (HRPCa)
Assay: Health-related quality-adjusted time-to-progression (QATTP) of disease, Kaplan-Meier product limit analysis, randomized placebo-controlled study
Assay type: in vivo, human
Procedure: The health-related QATTP of disease model for this invention expresses progression-free time as an equally preferable amount of time spent in full health. This is achieved by using patient-reported health-related QoL, as measured for the duration of observation or progression-free interval, to weight progression-free time. […] Patients received treatment with 10 mg (N=89) or 2.5 mg (N=95) of atrasentan or placebo (N=104) until experiencing a clinical event indicative of disease progression such as palliative opiate treatment of new bone or visceral pain, palliative radiation treatment of new bone pain, or new tumor growth symptoms requiring intervention or treatment with chemotherapy. Patient-reported health-related QoL data were collected with the EORTC QLQ-30 and the FACT-G and FACT-P, both of which were administered at baseline, at six week intervals and at each patient's final visit. The results from the 10 mg and 2.5 mg treatment groups are reported relative to the placebo group. A patient's transformed domain score and total score from both the EORTC QLQ-30 and FACT were used to weight the time-to-progression outcome data. Transformed domain scores ranged between 0 and 1, so the reported health-related QATTP of disease outcome was never larger than the actual time-to-progression. Each patient's health-related QATTP of disease was computed as the sum of the health-related QoL weights multiplied by the duration for which that patient experienced that health-related QoL. If a patient experienced a clinical event between two health-related QoL assessments, the set of health-related QoL domain scores immediately prior to the event were carried forward to the time of the clinical event. The mean and median health-related QATTP of disease outcomes were then estimated using Kaplan-Meier product limit methodology (Journal of the American Statistical Association, vol. 53, 1958, pp 457-481). The area under a Kaplan-Meier survival curve conveys an estimated mean health-related QATTP of disease. This analysis was applied to both intent-to-treat and per protocol population data. All health-related QATTP of disease comparisons between atrasentan and placebo treatment groups were based on a log-rank test with statistical significance at an α of 0.05. Results of the Kaplan-Meier product limit survival method analysis are reported in TABLE 2 (Intent to Treat) and TABLE 3 (Per Protocol Population). Mean and median health-related QATTP of disease are shown by treatment group. Log-rank tests comparing the differences between treatment groups are also reported.

[1] = EORTC Physical Functioning, 10 mg, intent to treat
[2] = EORTC Physical Functioning, 10 mg, per protocol
[3] = EORTC Role Functioning, 2.5 mg, intent to treat
[4] = EORTC Role Functioning, 2.5 mg, per protocol
[5] = EORTC Role Functioning, 10 mg, intent to treat
[6] = EORTC Role Functioning, 10 mg, per protocol
[7] = EORTC Sleep Disturbance, 2.5 mg, intent to treat
[8] = EORTC Sleep Disturbance, 2.5 mg, per protocol
[9] = EORTC Sleep Disturbance, 10 mg, intent to treat
[10] = EORTC Sleep Disturbance, 10 mg, per protocol
[11] = EORTC Social Functioning, 2.5 mg, intent to treat
[12] = EORTC Social Functioning, 2.5 mg, per protocol
[13] = EORTC Social Functioning, 10 mg, intent to treat
[14] = EORTC Social Functioning, 10 mg, per protocol
[15] = FACT Emotional Well Being, 2.5 mg, intent to treat
[16] = FACT Emotional Well Being, 2.5 mg, per protocol
[17] = FACT Emotional Well Being, 10 mg, intent to treat
[18] = FACT Emotional Well Being, 10 mg, per protocol
[19] = FACT Functional Well Being, 2.5 mg, intent to treat
[20] = FACT Functional Well Being, 2.5 mg, per protocol
[21] = FACT Functional Well Being, 10 mg, intent to treat
[22] = FACT Functional Well Being, 10 mg, per protocol
[23] = FACT Physical Well Being, 2.5 mg, intent to treat
[24] = FACT Physical Well Being, 2.5 mg, per protocol
[25] = FACT Physical Well Being, 10 mg, intent to treat
[26] = FACT Physical Well Being, 10 mg, per protocol
[27] = FACT Social/Family Well Being, 2.5 mg, intent to treat
[28] = FACT Social/Family Well Being, 2.5 mg, per protocol
[29] = FACT Social/Family Well Being, 10 mg, intent to treat
[30] = FACT Social/Family Well Being, 10 mg, per protocol
[31] = FACT Total, 2.5 mg, intent to treat
[32] = FACT Total, 2.5 mg, per protocol
[33] = FACT Total, 10 mg, intent to treat
[34] = FACT Total, 10 mg, per protocol
[35] = FACT-G, 2.5 mg, intent to treat
[36] = FACT-P, 2.5 mg, intent to treat

CCCCN(CCCC)C(=O)CN1C[C@H](c2ccc3c(c2)OCO3)[C@@H](C(=O)O)[C@@H]1c1ccc(OC)cc1 [atrasentan, (2R,3R,4S)-2-(4-methoxyphenyl)-4-(1,3-benzodioxol-5-yl)-1-(((N,N-dibutylamino)carbonyl)methyl)pyrrolidine-3-carboxylic acid]
QATTP of Disease Median (EORTC Physical Functioning, 2.5 mg, per protocol): 124 days | QATTP of Disease Mean [1]: 164 days | QATTP of Disease Median [1]: 119 days | QATTP of Disease Mean [2]: 168 days | QATTP of Disease Median [2]: 127 days | QATTP of Disease Mean [3]: 176 days | QATTP of Disease Median [3]: 128 days | QATTP of Disease Mean [4]: 185 days | QATTP of Disease Median [4]: 142 days | QATTP of Disease Mean [5]: 180 days | QATTP of Disease Median [5]: 123 days | QATTP of Disease Mean [6]: 187 days | QATTP of Disease Median [6]: 128 days | QATTP of Disease Mean [7]: 172 days | QATTP of Disease Median [7]: 127 days | QATTP of Disease Mean [8]: 179 days | QATTP of Disease Median [8]: 137 days | QATTP of Disease Mean [9]: 158 days | QATTP of Disease Median [9]: 123 days | QATTP of Disease Mean [10]: 162 days | QATTP of Disease Median [10]: 127 days | QATTP of Disease Mean [11]: 184 days | QATTP of Disease Median [11]: 142 days | QATTP of Disease Mean [12]: 192 days | QATTP of Disease Median [12]: 156 days | QATTP of Disease Mean [13]: 190 days | QATTP of Disease Median [13]: 135 days | QATTP of Disease Mean [14]: 196 days | QATTP of Disease Median [14]: 141 days | QATTP of Disease Mean [15]: 180 days | QATTP of Disease Median [15]: 133 days | QATTP of Disease Mean [16]: 188 days | QATTP of Disease Median [16]: 147 days | QATTP of Disease Mean [17]: 163 days | QATTP of Disease Median [17]: 127 days | QATTP of Disease Mean [18]: 168 days | QATTP of Disease Median [18]: 131 days | QATTP of Disease Mean [19]: 161 days | QATTP of Disease Median [19]: 111 days | QATTP of Disease Mean [20]: 168 days | QATTP of Disease Median [20]: 111 days | QATTP of Disease Mean [21]: 140 days | QATTP of Disease Median [21]: 98 days | QATTP of Disease Mean [22]: 144 days | QATTP of Disease Median [22]: 113 days | QATTP of Disease Mean [23]: 181 days | QATTP of Disease Median [23]: 135 days | QATTP of Disease Mean [24]: 191 days | QATTP of Disease Median [24]: 148 days | QATTP of Disease Mean [25]: 184 days | QATTP of Disease Median [25]: 127 days | QATTP of Disease Mean [26]: 190 days | QATTP of Disease Median [26]: 130 days | QATTP of Disease Mean [27]: 160 days | QATTP of Disease Median [27]: 126 days | QATTP of Disease Mean [28]: 169 days | QATTP of Disease Median [28]: 143 days | QATTP of Disease Mean [29]: 147 days | QATTP of Disease Median [29]: 121 days | QATTP of Disease Mean [30]: 151 days | QATTP of Disease Median [30]: 126 days | QATTP of Disease Mean [31]: 166 days | QATTP of Disease Median [31]: 125 days | QATTP of Disease Mean [32]: 174 days | QATTP of Disease Median [32]: 135 days | QATTP of Disease Mean [33]: 152 days | QATTP of Disease Median [33]: 117 days | QATTP of Disease Mean [34]: 157 days | QATTP of Disease Median [34]: 127 days | QATTP of Disease Mean [35]: 172 days | QATTP of Disease Median [35]: 129 days | QATTP of Disease Mean (FACT-G, 2.5 mg, per protocol): 180 days | QATTP of Disease Median (FACT-G, 2.5 mg, per protocol): 143 days | QATTP of Disease Mean (FACT-G, 10 mg, intent to treat): 160 days | QATTP of Disease Median (FACT-G, 10 mg, intent to treat): 123 days | QATTP of Disease Mean (FACT-G, 10 mg, per protocol): 165 days | QATTP of Disease Median (FACT-G, 10 mg, per protocol): 130 days | QATTP of Disease Mean [36]: 152 days | QATTP of Disease Median [36]: 115 days | QATTP of Disease Mean (FACT-P, 2.5 mg, per protocol): 160 days | QATTP of Disease Median (FACT-P, 2.5 mg, per protocol): 117 days | QATTP of Disease Mean (FACT-P, 10 mg, intent to treat): 135 days | QATTP of Disease Median (FACT-P, 10 mg, intent to treat): 107 days | QATTP of Disease Mean (FACT-P, 10 mg, per protocol): 139 days | QATTP of Disease Median (FACT-P, 10 mg, per protocol): 111 days | health-related QATTP over placebo (both 10 mg and 2.5 mg, per protocol population, after adjusting for health-related QoL effects): longer | mean health-related QATTP's of disease (data in TABLE 3, both 10 mg and 2.5 mg treatment groups): both delays and improvement | differences in the QATTP across treatment groups (intent-to-treat population): no statistically significant differences
